Test results as given in patent US11427556B2, “Urea derivatives as inhibitors of ASK1” (Hepagene Therapeutics (HK) Limited, priority 2017, dated 2022).

molecular target: T1, Recombinant human ASK1 kinase (Homo sapiens, UniProt Q99683); experiment: ASK1 kinase HTRF assay (HTRF KinEASE-STK, phosphorylation of biotinylated peptide substrate); type: biochemical; conditions: not given
T1 construct: purchased Invitrogen Inc
T1 sequence (Q99683 1-1374): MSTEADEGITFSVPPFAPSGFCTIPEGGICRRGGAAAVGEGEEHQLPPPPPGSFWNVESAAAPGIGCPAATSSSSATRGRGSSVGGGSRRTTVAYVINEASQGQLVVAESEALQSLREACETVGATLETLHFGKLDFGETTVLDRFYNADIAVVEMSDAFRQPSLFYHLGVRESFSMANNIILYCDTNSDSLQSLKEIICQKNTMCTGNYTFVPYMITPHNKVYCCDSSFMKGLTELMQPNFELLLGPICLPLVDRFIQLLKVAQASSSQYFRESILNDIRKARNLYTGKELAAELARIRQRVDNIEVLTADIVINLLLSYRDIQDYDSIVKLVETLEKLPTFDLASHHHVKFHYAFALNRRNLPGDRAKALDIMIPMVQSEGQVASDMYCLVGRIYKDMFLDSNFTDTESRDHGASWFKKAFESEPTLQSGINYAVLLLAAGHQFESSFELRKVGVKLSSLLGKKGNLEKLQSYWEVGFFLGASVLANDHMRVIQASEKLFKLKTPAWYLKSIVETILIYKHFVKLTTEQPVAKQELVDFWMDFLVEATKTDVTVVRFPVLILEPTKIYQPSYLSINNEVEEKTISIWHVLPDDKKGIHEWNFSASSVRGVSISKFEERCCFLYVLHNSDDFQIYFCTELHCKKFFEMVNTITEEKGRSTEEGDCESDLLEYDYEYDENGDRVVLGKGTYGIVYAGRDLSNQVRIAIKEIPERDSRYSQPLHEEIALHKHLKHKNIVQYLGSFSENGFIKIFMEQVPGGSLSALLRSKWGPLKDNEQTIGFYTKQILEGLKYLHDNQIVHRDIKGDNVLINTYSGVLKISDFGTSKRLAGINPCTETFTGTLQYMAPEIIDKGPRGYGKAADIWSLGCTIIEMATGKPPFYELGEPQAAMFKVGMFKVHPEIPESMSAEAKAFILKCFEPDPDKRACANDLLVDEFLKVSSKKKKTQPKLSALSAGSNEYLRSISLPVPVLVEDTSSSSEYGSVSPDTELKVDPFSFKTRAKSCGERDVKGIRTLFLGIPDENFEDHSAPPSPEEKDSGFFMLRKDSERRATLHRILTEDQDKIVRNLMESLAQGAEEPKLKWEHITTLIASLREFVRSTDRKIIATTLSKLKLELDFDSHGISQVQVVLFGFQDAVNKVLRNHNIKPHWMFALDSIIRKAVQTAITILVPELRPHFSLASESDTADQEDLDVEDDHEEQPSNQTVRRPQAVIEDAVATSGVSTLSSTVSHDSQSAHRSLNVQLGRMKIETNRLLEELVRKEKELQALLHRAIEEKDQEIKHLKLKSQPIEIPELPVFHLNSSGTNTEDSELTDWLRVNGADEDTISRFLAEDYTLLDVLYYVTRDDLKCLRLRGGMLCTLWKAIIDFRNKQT
Description: Reagents: Recombinant human ASK1 kinase was from Invitrogen Inc. HTRF KinEASETM-STK S3 kit was obtained from Cisbio (Bedford, Mass.). All other reagents were of the highest grade commercially available.
Assay: The assay measures the phosphorylation level of a biotinylatd peptide substrate by the ASK1 kinase using HTRF detection. ASK1 kinase assay is based on HTRF KinEASETM-STK manual from Cisbio. Test compound, 1 uM STK-substrate-biotin, 3 nM of ASK1 kinase are incubated with 1*Kinase buffer with 5 mM MgCl2 and 1 mM DTT.

`CC(C)n1cnnc1-c1cccc(NC(=O)Nc2cc3ccccc3cn2)n1` [Compound I-057] was tested. Which EC50 did it give?
The EC50 was less than 50 nM.

With `CC(C)n1cnnc1-c1cccc(NC(=O)Nc2nccc3ccccc23)n1` [Compound I-066] as the compound, how does the EC50 read?
The EC50 was less than 50 nM.

With `CC(C)n1cnnc1-c1cccc(NC(=O)Nc2ccc3ccccc3n2)n1` [Compound I-067] as the compound, how does the EC50 read?
Its EC50 is less than 50 nM.

`C[C@H](CO)n1cnnc1-c1cccc(NC(=O)Nc2ccc3ccccc3n2)n1` [Compound I-069] was tested. Which EC50 did it give?
The EC50 was less than 50 nM.

same assay, conditions: 3 nM ASK1 kinase, 1 uM STK-substrate-biotin, HTRF detection; read-out: EC50

`Cc1cnc(NC(=O)Nc2cccc(-c3nncn3C(C)C)n2)cn1` [Compound I-056] was tested. Which EC50 did it give?
Its EC50 is less than 50 nM.

Which EC50 does the source give for `C[C@H](CO)n1cnnc1-c1cccc(NC(=O)Nc2cc3ccccc3cn2)n1` [Compound I-058] here?
Its EC50 is less than 50 nM.

Which EC50 does the source give for `C[C@@H](CO)n1cnnc1-c1cccc(NC(=O)Nc2cc3ccccc3cn2)n1` [Compound I-059] here?
The EC50 was less than 50 nM.

Which EC50 does the source give for `CC(=O)OC[C@@H](C)n1cnnc1-c1cccc(NC(=O)Nc2cc3ccccc3cn2)n1` [Compound I-061] here?
Its EC50 is 50 to 500 nM.

With `CC(C)[C@H](N)C(=O)OC[C@@H](C)n1cnnc1-c1cccc(NC(=O)Nc2cc3ccccc3cn2)n1` [Compound I-062] as the compound, how does the EC50 read?
Its EC50 is less than 50 nM.

How did the EC50 turn out when `CC(C)n1cnnc1-c1cccc(NC(=O)Nc2cc3cc(N4CCNCC4)ccc3cn2)n1` [Compound I-065] was run?
Its EC50 is 50 to 500 nM.

How did the EC50 turn out when `O=C(Nc1cccc(-c2nncn2C2CC2)n1)Nc1ccc2ccccc2n1` [Compound I-068] was run?
The EC50 was less than 50 nM.

`CC(C)n1cnnc1-c1cccc(NC(=O)Nc2ncccc2OCc2ccccc2)n1` [Compound I-070] was tested. Which EC50 did it give?
The EC50 was less than 50 nM.

How did the EC50 turn out when `CC(C)n1cnnc1-c1cccc(NC(=O)Nc2ccc(OCc3ccccc3)cn2)n1` [Compound I-071] was run?
Its EC50 is less than 50 nM.

How did the EC50 turn out when `CC(C)n1cnnc1-c1cccc(NC(=O)Nc2ncccc2O)n1` [Compound I-072] was run?
The EC50 was less than 50 nM.

With `CC(C)n1cnnc1-c1cccc(NC(=O)Nc2cc(O)ccn2)n1` [Compound I-073] as the compound, how does the EC50 read?
The EC50 was 50 to 500 nM.

`CC(C)n1cnnc1-c1cccc(NC(=O)Nc2ccc(O)cn2)n1` [Compound I-074] was tested. Which EC50 did it give?
The EC50 was less than 50 nM.

How did the EC50 turn out when `CC(C)n1cnnc1-c1cccc(NC(=O)Nc2ncccc2-c2ccccc2)n1` [Compound I-075] was run?
Its EC50 is 50 to 500 nM.

For `CC(C)n1cnnc1-c1cccc(NC(=O)Nc2ccc(-c3ccccc3)cn2)n1` [Compound I-076], which EC50 is on record?
Its EC50 is less than 50 nM.

Which EC50 does the source give for `CC(C)n1cnnc1-c1cccc(NC(=O)Nc2cc(-c3ccccc3)ccn2)n1` [Compound I-077] here?
The EC50 was less than 50 nM.

With `C[C@H](CO)n1cnnc1-c1cccc(NC(=O)Nc2cc(-c3ccccc3)ccn2)n1` [Compound I-078] as the compound, how does the EC50 read?
The EC50 was less than 50 nM.

With `C[C@@H](CO)n1cnnc1-c1cccc(NC(=O)Nc2cc(-c3ccccc3)ccn2)n1` [Compound I-079] as the compound, how does the EC50 read?
Its EC50 is less than 50 nM.

How did the EC50 turn out when `CC(C)n1cnnc1-c1cccc(NC(=O)Nc2cc(-c3ccc(C4CC4)cc3)ccn2)n1` [Compound I-080] was run?
Its EC50 is less than 50 nM.

With `CC(C)n1cnnc1-c1cccc(NC(=O)Nc2cc(-c3ccc(C4CC4)nc3)ccn2)n1` [Compound I-081] as the compound, how does the EC50 read?
The EC50 was less than 50 nM.

With `CC(C)n1cnnc1-c1cccc(NC(=O)Nc2ncccc2-c2cccnc2)n1` [Compound I-082] as the compound, how does the EC50 read?
The EC50 was less than 50 nM.

How did the EC50 turn out when `CC(C)n1cnnc1-c1cccc(NC(=O)Nc2ncccc2-c2ccncc2)n1` [Compound I-083] was run?
The EC50 was 50 to 500 nM.

`CC(C)n1cnnc1-c1cccc(NC(=O)Nc2cc(-c3ccccn3)ccn2)n1` [Compound I-084] was tested. Which EC50 did it give?
Its EC50 is less than 50 nM.

With `C[C@H](CO)n1cnnc1-c1cccc(NC(=O)Nc2cc(-c3ccccn3)ccn2)n1` [Compound I-085] as the compound, how does the EC50 read?
Its EC50 is less than 50 nM.

With `CC(C)n1cnnc1-c1cccc(NC(=O)Nc2cc(-c3cccnc3)ccn2)n1` [Compound I-086] as the compound, how does the EC50 read?
Its EC50 is less than 50 nM.

Which EC50 does the source give for `CC(C)n1cnnc1-c1cccc(NC(=O)Nc2cc(-c3ccncc3)ccn2)n1` [Compound I-087] here?
Its EC50 is less than 50 nM.

With `CC(C)n1cnnc1-c1cccc(NC(=O)Nc2ccc(-c3ccccn3)cn2)n1` [Compound I-088] as the compound, how does the EC50 read?
The EC50 was less than 50 nM.

How did the EC50 turn out when `CC(C)n1cnnc1-c1cccc(NC(=O)Nc2ccc(-c3cccnc3)cn2)n1` [Compound I-089] was run?
The EC50 was less than 50 nM.

Which EC50 does the source give for `CC(C)n1cnnc1-c1cccc(NC(=O)Nc2ccc(-c3ccncc3)cn2)n1` [Compound I-090] here?
Its EC50 is less than 50 nM.

`CC(C)n1cnnc1-c1cccc(NC(=O)Nc2cc(C3CCOCC3)ccn2)n1` [Compound I-091] was tested. Which EC50 did it give?
The EC50 was less than 50 nM.
